Source: PubChem BioAssay (NCI)
Values joined by “and” are separate entries in the source; they are usually repeats but may differ in a detail not shown here. Identical values can stand only once.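 Dose response: 5 concentrations. Exposure: 48 h. Format: 96-well plates. Endpoint: linear interpolation; highest concentration if not reached. Abbreviation: GI50, concentration required for 50% inhibition of growth. The concentration for full growth arrest is given as TGI.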

Tests used:
Assay in all cases: NCI anticancer screen, dose series, 48 h
OVCAR-8 ovarian = test system: OVCAR-8 ovarian
COLO 205 colon = test system: COLO 205 colon
A549 NSCLC = test system: A549 NSCLC
T-47D breast = test system: T-47D breast
SW-620 colon = test system: SW-620 colon
HOP-92 NSCLC = test system: HOP-92 NSCLC
SK-OV-3 ovarian = test system: SK-OV-3 ovarian
UACC-62 melanoma = test system: UACC-62 melanoma
SF-539 CNS = test system: SF-539 CNS
MDA-MB-231 breast = test system: MDA-MB-231 breast
RPMI-8226 leukemia = test system: RPMI-8226 leukemia
UACC-257 melanoma = test system: UACC-257 melanoma
U251 CNS = test system: U251 CNS
HCT-116 colon = test system: HCT-116 colon
SNB-75 CNS = test system: SNB-75 CNS
OVCAR-5 ovarian = test system: OVCAR-5 ovarian
LOX IMVI melanoma = test system: LOX IMVI melanoma
HOP-62 NSCLC = test system: HOP-62 NSCLC
ACHN renal = test system: ACHN renal
NCI-H460 lung = test system: NCI-H460 lung
IGROV1 ovarian = test system: IGROV1 ovarian
786-0 renal = test system: 786-0 renal
CAKI-1 renal = test system: CAKI-1 renal
HCC-2998 colon = test system: HCC-2998 colon
SK-MEL-2 melanoma = test system: SK-MEL-2 melanoma
OVCAR-3 ovarian = test system: OVCAR-3 ovarian
HS 578T breast = test system: HS 578T breast
HCT-15 colon = test system: HCT-15 colon
SF-268 CNS = test system: SF-268 CNS
EKVX NSCLC = test system: EKVX NSCLC
MDA-MB-435 = test system: MDA-MB-435
NCI-H23 lung = test system: NCI-H23 lung
TK-10 renal = test system: TK-10 renal
BT-549 breast = test system: BT-549 breast
SR leukemia = test system: SR leukemia
MCF7 breast = test system: MCF7 breast
OVCAR-4 ovarian = test system: OVCAR-4 ovarian
SNB-19 CNS = test system: SNB-19 CNS
KM12 colon = test system: KM12 colon
SN12C renal = test system: SN12C renal
MALME-3M melanoma = test system: MALME-3M melanoma
NCI-H226 lung = test system: NCI-H226 lung
UO-31 renal = test system: UO-31 renal
NCI-H522 lung = test system: NCI-H522 lung
SF-295 CNS = test system: SF-295 CNS
SK-MEL-28 melanoma = test system: SK-MEL-28 melanoma
M14 melanoma = test system: M14 melanoma
NCI/ADR-RES ovarian = test system: NCI/ADR-RES ovarian
PC-3 prostate = test system: PC-3 prostate
MOLT-4 leukemia = test system: MOLT-4 leukemia
A498 renal = test system: A498 renal
HT29 colon = test system: HT29 colon
RXF 393 renal = test system: RXF 393 renal
DU-145 prostate = test system: DU-145 prostate

CCOC(=O)C(Cc1c[nH]c2cc([N+](=O)[O-])ccc12)(NC(C)=O)C(=O)OCC was tested, and the GI50 (OVCAR-8 ovarian) was 30.3 µM and 104 µM, the TGI (OVCAR-8 ovarian) was greater than 1000 µM and the GI50 (COLO 205 colon) was greater than 1000 µM. For the same molecule, the TGI (COLO 205 colon) was greater than 1000 µM, the TGI (A549 NSCLC) was greater than 1000 µM and the GI50 (T-47D breast) was 40.7 µM and 105 µM. For the same molecule, the TGI (T-47D breast) was greater than 1000 µM, the GI50 (SW-620 colon) was greater than 1000 µM and the TGI (SW-620 colon) was greater than 1000 µM. The GI50 (HOP-92 NSCLC) was 47.5 µM, the TGI (HOP-92 NSCLC) was 141 µM and the GI50 (SK-OV-3 ovarian) was 184 µM. The TGI (SK-OV-3 ovarian) was greater than 1000 µM, the TGI (UACC-62 melanoma) was greater than 1000 µM and the GI50 (SF-539 CNS) was 68.3 µM and 84.2 µM. The TGI (SF-539 CNS) was 330 µM, the GI50 (MDA-MB-231 breast) was 167 µM and the TGI (MDA-MB-231 breast) was greater than 715 µM. For the same molecule, the GI50 (RPMI-8226 leukemia) was 45 µM, the TGI (UACC-257 melanoma) was greater than 1000 µM and the GI50 (U251 CNS) was 104 µM. It also gave a TGI (U251 CNS) greater than 693 µM, a GI50 (HCT-116 colon) of 390 µM and a TGI (HCT-116 colon) greater than 1000 µM. For the same molecule, the GI50 (SNB-75 CNS) was 93.5 µM and 46.8 µM, the TGI (SNB-75 CNS) was 114 µM and the GI50 (OVCAR-5 ovarian) was greater than 833 µM. For the same molecule, the TGI (OVCAR-5 ovarian) was greater than 1000 µM, the GI50 (LOX IMVI melanoma) was greater than 766 µM and the TGI (LOX IMVI melanoma) was greater than 1000 µM. It also gave a GI50 (HOP-62 NSCLC) of 161 µM, a TGI (HOP-62 NSCLC) of 461 µM and a GI50 (ACHN renal) of 178 µM. It also gave a TGI (ACHN renal) greater than 1000 µM, a TGI (NCI-H460 lung) greater than 1000 µM and a GI50 (IGROV1 ovarian) of 176 µM. It also gave a TGI (IGROV1 ovarian) greater than 1000 µM, a GI50 (786-0 renal) of 175 µM and a TGI (786-0 renal) greater than 754 µM. The GI50 (CAKI-1 renal) was 190 µM, the TGI (CAKI-1 renal) was greater than 1000 µM and the GI50 (HCC-2998 colon) was greater than 1000 µM. For the same molecule, the TGI (HCC-2998 colon) was greater than 1000 µM, the GI50 (SK-MEL-2 melanoma) was 36 µM and 168 µM and the TGI (SK-MEL-2 melanoma) was 97.9 µM and 401 µM. For the same molecule, the GI50 (OVCAR-3 ovarian) was greater than 1000 µM, the TGI (OVCAR-3 ovarian) was greater than 1000 µM and the GI50 (HS 578T breast) was 61.3 µM. It also gave a TGI (HS 578T breast) greater than 798 µM, a GI50 (HCT-15 colon) greater than 1000 µM and a TGI (HCT-15 colon) greater than 1000 µM. The GI50 (SF-268 CNS) was 95.1 µM, the TGI (SF-268 CNS) was greater than 1000 µM and the GI50 (EKVX NSCLC) was 59 µM. For the same molecule, the TGI (EKVX NSCLC) was greater than 614 µM, the GI50 (MDA-MB-435) was greater than 649 µM and the TGI (MDA-MB-435) was greater than 1000 µM. For the same molecule, the GI50 (NCI-H23 lung) was 138 µM, the TGI (NCI-H23 lung) was greater than 1000 µM and the GI50 (TK-10 renal) was 296 µM. The TGI (TK-10 renal) was greater than 760 µM, the GI50 (BT-549 breast) was 64.9 µM and 75 µM and the TGI (BT-549 breast) was greater than 682 µM. It also gave a GI50 (SR leukemia) of 26.3 µM, a TGI (SR leukemia) of 446 µM and a TGI (MCF7 breast) greater than 1000 µM. For the same molecule, the GI50 (OVCAR-4 ovarian) was greater than 1000 µM, the TGI (OVCAR-4 ovarian) was greater than 1000 µM and the GI50 (SNB-19 CNS) was 148 µM. For the same molecule, the TGI (SNB-19 CNS) was greater than 824 µM, the GI50 (KM12 colon) was greater than 1000 µM and the TGI (KM12 colon) was greater than 1000 µM. For the same molecule, the GI50 (SN12C renal) was 401 µM, the TGI (SN12C renal) was greater than 1000 µM and the GI50 (MALME-3M melanoma) was 171 µM. For the same molecule, the TGI (MALME-3M melanoma) was greater than 1000 µM, the GI50 (NCI-H226 lung) was greater than 769 µM and the TGI (NCI-H226 lung) was greater than 1000 µM. The GI50 (UO-31 renal) was 43.4 µM and 188 µM, the TGI (UO-31 renal) was greater than 1000 µM and the TGI (NCI-H522 lung) was greater than 1000 µM. The GI50 (SF-295 CNS) was 57.9 µM and 56.9 µM, the TGI (SF-295 CNS) was greater than 478 µM and the GI50 (SK-MEL-28 melanoma) was greater than 1000 µM. For the same molecule, the TGI (SK-MEL-28 melanoma) was greater than 1000 µM, the GI50 (M14 melanoma) was greater than 931 µM and the GI50 (NCI/ADR-RES ovarian) was 92.2 µM and 331 µM. It also gave a TGI (NCI/ADR-RES ovarian) greater than 1000 µM, a TGI (PC-3 prostate) greater than 1000 µM and a GI50 (MOLT-4 leukemia) of 35.2 µM. It also gave a GI50 (A498 renal) of 55.3 µM, a TGI (A498 renal) of 203 µM and a GI50 (HT29 colon) greater than 1000 µM. The TGI (HT29 colon) was greater than 1000 µM, the GI50 (RXF 393 renal) was 58.6 µM and the TGI (RXF 393 renal) was 133 µM. The GI50 (DU-145 prostate) was greater than 542 µM and the TGI (DU-145 prostate) was greater than 1000 µM.
